Test results from ChEMBL document CHEMBL1123169, “Structurally specific binding of halogenated biphenyls to thyroxine transport protein” (J Med Chem, 1986).

How the values were obtained:
[1] = target: Transthyretin (Homo sapiens) (UniProt P02766)
Description: Relative binding affinity to prealbumin was determined from the competition binding assays and is expressed relative to L-T4

[2] = target: Transthyretin (Homo sapiens) (UniProt P02766); experiment: Concentration at which 50% total binding to prealbumin protein.
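Throughout, for Binding affinity: competition binding to prealbumin, with affinity given relative to L-T4 as the reference ligand.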

Row | Concentration [2] | Compound | Binding affinity [1]
1 |  | Oc1c(Cl)cc(-c2ccccc2)cc1Cl | 851
2 |  | NC(Cc1cc(I)c(Oc2cc(I)c(O)c(I)c2)c(I)c1)C(=O)O (configuration not stated) | 63
3 |  | Clc1cccc(Cl)c1-c1c(Cl)cccc1Cl | < 5
4 |  | Oc1c(Cl)cc(Cl)cc1-c1ccccc1 | 28
5 | 0.87 nM | O=C(O)c1cc(I)c(-c2cc(I)c(O)c(I)c2)c(I)c1 | 1150
6 |  | Clc1cc(Cl)cc(-c2cc(Cl)cc(Cl)c2)c1 | 411
7 |  | Oc1ccc(-c2c(Cl)cc(Cl)cc2Cl)cc1 | 46
8 |  | NC(Cc1ccc(Oc2cc(I)c(O)c(I)c2)c(I)c1)C(=O)O (configuration not stated) | 23
9 |  | N[C@@H](Cc1cc(I)c(Oc2ccc(O)c(I)c2)c(I)c1)C(=O)O | 2
10 | 2.5 nM | Oc1ccc(-c2c(Cl)c(Cl)c(O)c(Cl)c2Cl)cc1 | 398
11 | 3 nM | NC(Cc1cc(I)c(-c2cc(I)c(O)c(I)c2)c(I)c1)C(=O)O (racemic) | 331
12 |  | Clc1cc(-c2cc(Cl)c(Cl)c(Cl)c2)cc(Cl)c1Cl | 313
13 |  | c1ccc(-c2ccccc2)cc1 | < 5
14 |  | Oc1ccc(-c2cc(Cl)c(Cl)c(Cl)c2Cl)cc1 | 286
15 |  | Oc1c(-c2cc(Cl)c(Cl)c(Cl)c2)cc(Cl)c(Cl)c1Cl | 208
16 |  | Oc1c(Cl)cc(-c2ccc(Cl)cc2)cc1Cl | 501
17 |  | N[C@@H](Cc1cc(I)c(Oc2cc(I)c(O)c(I)c2)c(I)c1)C(=O)O | 100

Row | Compound | Concentration [2] | Binding affinity [1]
18 | Oc1c(Cl)cc(-c2cc(Cl)c(O)c(Cl)c2)cc1Cl | 1.5 nM | 661
